Drawing on patent publication US12606528B2, “Methods and materials for inhibiting NF-kB activity” (University of Pittsburgh - Of the Commonwealth System of …, priority 2019, dated 2026), this text covers IC50 for 24 compounds.

One assay deals with TNF release. Description: TNF assay: TNF release from LPS-stimulated human PBMCs (TNF ELISA). It counts as cell-based. As to conditions: PBMC; LPS-stimulated human PBMCs, TNF ELISA; read-out: IC50 (TNF assay). In a few lines: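 TNF ELISA on supernatants read-out; cells were 10k human PBMCs/well given LPS at 10 ng/mL for 18 h after a 2 h compound pre-incubation across a concentration series, with IC50 derived for suppression of TNF secretion.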
Background: An ELISA detects its analyte on a solid surface through an enzyme-linked reagent.

The test system of another assay is NF-κB. Description: NF-κB assay: THP1-NF-κB-LUC cells, LPS-stimulated secreted luciferase. It counts as cell-based. Conditions: THP1-NF-κB-LUC cells, LPS-stimulated; read-out: IC50 (NF-κB assay). Put shortly: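 THP1-NF-κB-LUC cells (25k/well) were pretreated with compounds for 2 h, then stimulated with LPS (10 ng/mL) for 18 h. Secreted luciferase was measured and normalized to vehicle, and IC50 was fitted from the concentration series.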

In general, IC50 refers to the concentration at which inhibition is half-maximal. Take `OCCCn1cnnc1-c1ccc2nc(-c3ccc(F)cc3)c(-c3ccc(F)cc3)nc2c1` [BC19665]: the IC50 is 1 to 10 µM with TNF release and under 0.1 µM in the assay on NF-κB.
In the case of `CN1CCN(C(=O)c2cc3nc(-c4ccc(F)cc4)c(-c4ccc(F)cc4)nc3cn2)CC1` [BC19666], the IC50 with TNF release was over 10 µM; in the assay on NF-κB it was 0.1 to 1 µM.
`Cn1oc(-c2ccc3nc(-c4ccc(F)cc4)c(-c4ccc(F)cc4)nc3c2)cc1=O` [BC19667]: the IC50 in the assay on TNF release and in the assay on NF-κB was over 10 µM each time.
Turning to `C/N=C(\c1ccc2nc(-c3ccc(F)cc3)c(-c3ccc(F)cc3)nc2c1)N1CCN(C)CC1` [BC19668], the IC50 in the assay on TNF release is over 10 µM; with NF-κB, 0.1 to 1 µM.
Take `C[S+]([O-])c1sc(-c2ccc3ccccc3c2)nc1S(=O)(=O)c1ccc(Cl)cc1` (stereo not drawn) [BC19671]: the IC50 in the assay on TNF release is under 0.1 µM; with NF-κB, 1 to 10 µM.
As for `CS(=O)(=O)c1sc(-c2ccc3ccccc3c2)nc1S(=O)(=O)c1ccc(Cl)cc1` [BC19672], the IC50 in the assay on TNF release was 0.1 to 1 µM; in the assay with NF-κB, 1 to 10 µM.
The matching figures for `CCC[S+]([O-])c1sc(-c2ccc3ccccc3c2)nc1S(=O)(=O)c1ccc(Cl)cc1` (stereo not drawn) [BC19673]: over 10 µM and 1 to 10 µM.
`CCCS(=O)(=O)c1sc(-c2ccc3ccccc3c2)nc1S(=O)(=O)c1ccc(Cl)cc1` [BC19674]: the IC50 in the assay on TNF release was over 10 µM; in the assay with NF-κB it was 1 to 10 µM.
`CC(C)C[S+]([O-])c1sc(-c2ccc3ccccc3c2)nc1S(=O)(=O)c1ccc(Cl)cc1` (stereo not drawn) [BC19675]: the IC50 in the assay with TNF release and in the assay on NF-κB was 1 to 10 µM each time.
Turning to `O=S(=O)(CC1CC1)c1sc(-c2ccc3ccccc3c2)nc1S(=O)(=O)c1ccc(Cl)cc1` [BC19676], the IC50 with TNF release was over 10 µM; in the assay with NF-κB it was 1 to 10 µM.
Consider `COCC[S+]([O-])c1sc(-c2ccc3ccccc3c2)nc1S(=O)(=O)c1ccc(Cl)cc1` (stereo not drawn) [BC19677], for which the IC50 in the assay with TNF release and with NF-κB was 1 to 10 µM each time.
Consider `COCCS(=O)(=O)c1sc(-c2ccc3ccccc3c2)nc1S(=O)(=O)c1ccc(Cl)cc1` [BC19678], for which the IC50 with TNF release and in the assay on NF-κB was 1 to 10 µM each time.
Regarding `COCC[S+]([O-])c1sc(-c2cccnc2)nc1S(=O)(=O)c1ccc(Cl)cc1` (stereo not drawn) [BC19679], the values for the IC50 in the assay on TNF release and in the assay with NF-κB were 0.1 to 1 µM and 1 to 10 µM, respectively.
As to `CCCSc1snc(-c2ccc(F)cc2)c1S(=O)(=O)c1ccc(Cl)cc1` [BC19680], the IC50 with TNF release and in the assay on NF-κB was over 10 µM in each case.
`CCC[S+]([O-])c1snc(-c2ccc(F)cc2)c1S(=O)(=O)c1ccc(Cl)cc1` (stereo not drawn) [BC19681]: the figures for the IC50 in the assay with TNF release and in the assay on NF-κB were under 0.1 µM and 0.1 to 1 µM, respectively.
Taken in the same sequence, the figures for `CCCS(=O)(=O)c1snc(-c2ccc(F)cc2)c1S(=O)(=O)c1ccc(Cl)cc1` [BC19682] were under 0.1 µM and 0.1 to 1 µM.
`O=C1CCOc2c(cc(Br)cc2S(=O)(=O)Nc2ccc(Cl)cc2)N1` [BC19685]: the IC50 was 1 to 10 µM with TNF release and under 0.1 µM with NF-κB.
Consider `CCc1ccc(NS(=O)(=O)c2cc(Br)cc3c2OCCC(=O)N3)cc1` [BC19686], for which the values for the IC50 in the assay with TNF release and in the assay on NF-κB were over 10 µM and under 0.1 µM, respectively.
With `CC(C)c1ccc(NS(=O)(=O)c2cc(Br)cc3c2OCCC(=O)N3)cc1` [BC19687], the concentration for half-maximal inhibition (IC50) was over 10 µM with TNF release and under 0.1 µM with NF-κB.
As for `COc1ccc(NS(=O)(=O)c2cc(Br)cc3c2OCCC(=O)N3)cc1Cl` [BC19688], the IC50 in the assay with TNF release and in the assay on NF-κB was over 10 µM each time.
In the case of `O=C1CCOc2cc(S(=O)(=O)Nc3ccccc3)c(Br)cc2N1` [BC19689], the results for the IC50 in the assay on TNF release and in the assay with NF-κB were 1 to 10 µM and over 10 µM, respectively.
For the compound `CCc1ccc(NS(=O)(=O)c2cc3c(cc2Br)NC(=O)CCO3)cc1` [BC19690], the IC50 in the assay on TNF release and in the assay on NF-κB was over 10 µM throughout.
Consider `COc1ccc(NS(=O)(=O)c2cc3c(cc2Br)NC(=O)CCO3)cc1` [BC19692], for which the IC50 in the assay with TNF release and in the assay on NF-κB was over 10 µM in each case.
As for `O=C1CCOc2cc(S(=O)(=O)Nc3ccc(F)cc3F)c(Br)cc2N1` [BC19693], the IC50 with TNF release and in the assay on NF-κB was over 10 µM throughout.
